The target of this assay is T1, BGT1 (Mus musculus, UniProt P31651).
T1 construct: from tissue; host or cells: mouse liver slices
T1 sequence (P31651 1-614): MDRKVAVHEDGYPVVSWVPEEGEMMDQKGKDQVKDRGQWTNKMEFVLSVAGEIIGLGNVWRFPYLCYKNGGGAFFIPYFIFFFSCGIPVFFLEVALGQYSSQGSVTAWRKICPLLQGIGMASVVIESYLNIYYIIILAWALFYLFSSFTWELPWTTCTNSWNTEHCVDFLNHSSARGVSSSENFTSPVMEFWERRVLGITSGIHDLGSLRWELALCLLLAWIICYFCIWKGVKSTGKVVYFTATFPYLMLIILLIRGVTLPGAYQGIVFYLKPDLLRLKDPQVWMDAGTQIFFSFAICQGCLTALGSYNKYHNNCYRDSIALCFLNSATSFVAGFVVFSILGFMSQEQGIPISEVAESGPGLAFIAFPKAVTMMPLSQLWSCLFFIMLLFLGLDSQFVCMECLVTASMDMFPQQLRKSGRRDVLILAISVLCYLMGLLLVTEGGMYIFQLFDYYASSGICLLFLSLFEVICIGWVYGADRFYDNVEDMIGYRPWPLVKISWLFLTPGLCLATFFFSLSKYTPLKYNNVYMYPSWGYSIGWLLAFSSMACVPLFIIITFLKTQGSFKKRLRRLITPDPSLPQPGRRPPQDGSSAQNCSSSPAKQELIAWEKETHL
Briefly: liver slice media GABA with BGT1 inhibitor. The following applies: liver slices, 1 mM. The assay is classed as cell-based. The text has this: Two liver slices were taken from each mouse.

We go through one compound from patent publication US20230128194A1, “METHODS AND COMPOSITIONS TO ALTER HEPATIC GABA RELEASE TO TREAT OBESITY-RELATED CONDITIONS” (ARIZONA BOARD OF REGENTS ON BEHALF OF THE UNIVERSITY OF …, priority 2017, published 2023).

Consider `C[N+](C)(C)CC(=O)O` [betaine], for which the “media GABA concentrations” value is reported as “increases”.
